Assay results taken from US3939266A, “Substituted sulfonylacetamido cephalosporins” (SmithKline Corporation, priority 1974, dated 1976).
≈ marks a conversion by molar mass, not a printed value. Where two headings read alike, the source gives them in different places.

What was measured:
Format in all cases: cell-based
[1] = test system: S. aureus HH 127; experiment: MIC against S. aureus HH 127; settings: Staphylococcus aureus, HH127
[2] = test system: S. aureus SK 23390; experiment: MIC against S. aureus SK 23390; settings: Staphylococcus aureus, SK23390
[3] = test system: Strep. pyog. C 203; experiment: MIC against Strep. pyog. C 203
[4] = test system: Strep. faecalis HH 34358; experiment: MIC against Strep. faecalis HH 34358; settings: Enterococcus faecalis, HH34358
[5] = test system: E. coli SK 12140; experiment: MIC against E. coli SK 12140; settings: Escherichia coli, SK12140
[6] = test system: E. coli HH 33779; experiment: MIC against E. coli HH 33779; settings: Escherichia coli, HH33779
[7] = test system: Kleb. pneumo. SK 4200; experiment: MIC against Kleb. pneumo. SK 4200
[8] = test system: Kleb. pneumo. SK 1200; experiment: MIC against Kleb. pneumo. SK 1200
[9] = test system: Pseudo. sp. HH 63; experiment: MIC against Pseudo. sp. HH 63
[10] = test system: Salmonella ATCC 12176; experiment: MIC against Salmonella ATCC 12176; settings: ATCC12176; Salmonella ATCC 12176; read-out: MIC
[11] = test system: Shigella HH 112; experiment: MIC against Shigella HH 112; settings: HH112; Shigella HH 112; read-out: MIC
[12] = test system: Entero. aerog. ATCH 13048; experiment: MIC against Entero. aerog. ATCH 13048
[13] = test system: Serra. marc. ATCC 13880; experiment: MIC against Serra. marc. ATCC 13880
[14] = test system: Entero. cloaca PaSL 969; experiment: MIC against Entero. cloaca PaSL 969
[15] = test system: S. villaluz; experiment: MIC against S. villaluz
[16] = E. coli SK 12140, read-out: MIC

Compound	MIC [1] [µg/mL]	MIC [2] [µg/mL]	MIC [3] [µg/mL]	MIC [4] [µg/mL]	MIC [5, 16] [µg/mL]	MIC [6] [µg/mL]	MIC [7] [µg/mL]	MIC [8] [µg/mL]	MIC [9] [µg/mL]	MIC [10] [µg/mL]	MIC [11] [µg/mL]	MIC [12] [µg/mL]	MIC [13] [µg/mL]	MIC [5] [µg/mL]	MIC [14] [µg/mL]	MIC [15] [µg/mL]
CCS(=O)(=O)CC(=O)NC1C(=O)N2C(C(=O)O)=C(CSc3nnc(C)s3)CSC12 (stereo not shown) [Compound 59641, 7-Ethyldulfonylacetamido-3-(2-methyl-1,3,5-thiadiazol-5-yl-thiomethyl)-3-cephem-4-carboxylic acid]	0.4 (≈ 0.836 µM)	0.4 (≈ 0.836 µM)	0.1 (≈ 0.209 µM)	25 (≈ 52.2 µM)	3.1 (≈ 6.48 µM)	12.5 (≈ 26.1 µM)	1.6 (≈ 3.34 µM)	1.6 (≈ 3.34 µM)	> 200	1.6 (≈ 3.34 µM)	6.3 (≈ 13.2 µM)	100 (≈ 209 µM)	> 200	–	–	–
Cc1nnc(SCC2=C(C(=O)O)N3C(=O)C(NC(=O)CS(C)(=O)=O)[C@H]3SC2)s1 (stereo partly shown) [Compound 55848, 7-Methylsulfonylacetamido-3-(2-methyl-1,3,4-thiadiazol-5-ylthiomethyl)-3-cephem-4-carboxylic acid]	1.6 (≈ 3.44 µM)	1.6 (≈ 3.44 µM)	0.2 (≈ 0.431 µM)	50 (≈ 108 µM)	–	25 (≈ 53.8 µM)	3.1 (≈ 6.67 µM)	6.3 (≈ 13.6 µM)	> 200	3.1 (≈ 6.67 µM)	12.5 (≈ 26.9 µM)	> 200	–	12.5 (≈ 26.9 µM)	> 200	–
CC(=O)OCC1=C(C(=O)O)N2C(=O)C(NC(=O)CS(N)(=O)=O)C2SC1 (stereo not shown) [Compound 59393, 7-Aminosulfonylacetamidocephalosporanic acid]	1.6 (≈ 4.07 µM)	1.6 (≈ 4.07 µM)	0.1 (≈ 0.254 µM)	50 (≈ 127 µM)	50 (≈ 127 µM)	50 (≈ 127 µM)	25 (≈ 63.5 µM)	25 (≈ 63.5 µM)	> 200	12.5 (≈ 31.8 µM)	25 (≈ 63.5 µM)	200 (≈ 508 µM)	> 200	–	100 (≈ 254 µM)	–
Cn1c(SCC2=C(C(=O)O)N3C(=O)C(NC(=O)CS(C)(=O)=O)C3SC2)n[nH]c1=O (stereo not shown) [Compound 59857]	1.6 (≈ 3.45 µM)	1.6 (≈ 3.45 µM)	0.2 (≈ 0.431 µM)	100 (≈ 216 µM)	25 (≈ 53.9 µM)	50 (≈ 108 µM)	6.3 (≈ 13.6 µM)	6.3 (≈ 13.6 µM)	> 200	3.1 (≈ 6.69 µM)	25 (≈ 53.9 µM)	> 200	> 200	–	–	25 (≈ 53.9 µM)
CC(=O)OCC1=C(C(=O)O)N2C(=O)C(NC(=O)CS(=O)(=O)c3ccccc3)C2SC1 (stereo not shown) [Compound 57359, 7-Phenylsulfonylacetamidocephalosporanic acid]	1.6 (≈ 3.52 µM)	0.8 (≈ 1.76 µM)	0.2 (≈ 0.44 µM)	50 (≈ 110 µM)	50 (≈ 110 µM)	100 (≈ 220 µM)	12.5 (≈ 27.5 µM)	6.3 (≈ 13.9 µM)	> 200	12.5 (≈ 27.5 µM)	25 (≈ 55 µM)	> 200	> 200	–	> 200	–
Cc1nnc(SCC2=C(C(=O)O)N3C(=O)C(NC(=O)CS(=O)(=O)c4ccccc4)[C@H]3SC2)s1 (stereo partly shown) [Compound 57360, 7-Phenylsulfonylacetamido-3-(2-methyl-1,3,4-thiadiazol-5-ylthiomethyl)-3-cephem-4-carboxylic acid]	0.8 (≈ 1.52 µM)	0.4 (≈ 0.76 µM)	0.1 (≈ 0.19 µM)	25 (≈ 47.5 µM)	25 (≈ 47.5 µM)	100 (≈ 190 µM)	25 (≈ 47.5 µM)	12.5 (≈ 23.7 µM)	> 200	25 (≈ 47.5 µM)	25 (≈ 47.5 µM)	> 200	> 200	–	> 200	–
CS(=O)(=O)CC(=O)NC1C(=O)N2C(C(=O)[O-])=C(C[n+]3ccccc3)CSC12 (stereo not shown) [Compound 59345, 7-Methylsulfonylacetamido-3-(1-pyridiniummethyl)-3-cephem-4-carboxylic acid]	0.8 (≈ 1.94 µM)	0.8 (≈ 1.94 µM)	0.1 (≈ 0.243 µM)	100 (≈ 243 µM)	100 (≈ 243 µM)	100 (≈ 243 µM)	50 (≈ 122 µM)	100 (≈ 243 µM)	> 200	50 (≈ 122 µM)	50 (≈ 122 µM)	> 200	> 200	–	> 200	25 (≈ 60.8 µM)
